Here are results for five compounds from DBAASP.

The term MIC denotes the smallest concentration in the dilution series that meets the test's criterion for growth inhibition.

Converted amounts (≈) assume the structure as drawn.

What all share (experiment): ≥ marks a high value that may be exact or a test limit, other limits are often not marked, values filed in µg/mL are converted to µM
Assay [1] has as its system Staphylococcus aureus ATCC 25923.
The test system of assay [2] is Candida albicans ATCC 2002.
The test system of assay [3] is Shigella dysenteriae.
Assay [4] relates to Pseudomonas aeruginosa.
The test system of assay [5] is Enterobacter cloacae ATCC 13047.
Assay [6] relates to Enterococcus faecalis ATCC 29212.
The subject of assay [7] is Pseudomonas aeruginosa ATCC 27853.
For assay [8], the system named is Pseudomonas aeruginosa CMCCB 1010.
The test system of assay [9] is Escherichia coli 37.
The subject of assay [10] is Klebsiella pneumoniae.
Assay [11] relates to Candida parapsilosis ATCC 22019.
Assay [12] deals with Staphylococcus aureus 10.
In assay [13] the test system is Candida albicans ATCC 90028.
Assay [14] has as its system Klebsiella pneumoniae ATCC 700603.
For assay [15], the system named is Staphylococcus aureus 37.
Assay [16] concerns Escherichia coli 117.
Assay [17] deals with Escherichia coli ATCC 25922.
The test system of assay [18] is Klebsiella pneumoniae 913.
Assay [19] deals with Enterobacter cloacae 2524.
The subject of assay [20] is Acinetobacter baumannii.
Assay [21] relates to Pseudomonas aeruginosa 3599.
Assay [22] relates to Pseudomonas aeruginosa 4677.
Assay [23] has as its system Pseudomonas aeruginosa 5106.
In assay [24] the test system is Escherichia coli 4530.
For assay [25], the system named is Streptococcus pneumoniae ATCC 49619.
Assay [26] relates to Salmonella typhimurium.
Assay [27] deals with Klebsiella pneumoniae ST258.
Assay [28] relates to Escherichia coli 170.
Assay [29] deals with Escherichia coli 5580.
Assay [30] concerns Pseudomonas aeruginosa ATCC 9027.
For assay [31], the system named is Escherichia coli ATCC 2592.
Assay [32] deals with Candida albicans ATCC 36232.
Assay [33] deals with Staphylococcus aureus ATCC 6538.
The subject of assay [34] is Staphylococcus aureus.
In assay [35] the test system is Proteus vulgaris ATCC 6380.
In assay [36] the test system is Micrococcus luteus ATCC 9341.
Assay [37] has as its system Bacillus subtilis IFO 3134.
Assay [38] relates to Staphylococcus aureus IFO 12732.
For assay [39], the system named is Pseudomonas aeruginosa IFO 12582.
For assay [40], the system named is Escherichia coli IFO 12734.
Assay [41] deals with Staphylococcus epidermidis.
Assay [42] concerns Staphylococcus aureus A170.

In the case of `CC[C@H](C)[C@H](NC(=O)[C@@H](NC(=O)[C@@H]1CCCN1C(=O)[C@H](CC(C)C)NC(=O)[C@@H](N)Cc1ccccc1)[C@@H](C)CC)C(=O)NCC(=O)N[C@@H](CCCCN)C(=O)N[C@@H](CC(C)C)C(=O)N[C@@H](CC(C)C)C(=O)N[C@@H](CO)C(=O)NCC(=O)O` [FLPIIGKLLSG], the MIC in assay [1] is 2.16 µM (≈ 2.5 µg/mL); in [2], 8.64 µM (≈ 10 µg/mL); in assay [3], 4.32 µM (≈ 5 µg/mL); in assay [4], 8.64 µM (≈ 10 µg/mL); in assay [5], 2.16 µM (≈ 2.5 µg/mL); in [6] it was 17.3 µM (≈ 20 µg/mL). The MIC came to 34.6 µM (≈ 40 µg/mL) in assay [7]; 17.3 µM (≈ 20 µg/mL) in assay [8]; 17.3 µM (≈ 20 µg/mL) in [9]; 69.1 µM (≈ 80 µg/mL) in assay [10]; 4.32 µM (≈ 5 µg/mL) in assay [11]; 8.64 µM (≈ 10 µg/mL) in assay [12]. For the same compound, the MIC in assay [13] is 17.3 µM (≈ 20 µg/mL); in [14] it was 8.64 µM (≈ 10 µg/mL); in [15], 4.32 µM (≈ 5 µg/mL); in [16], 4.32 µM (≈ 5 µg/mL); in assay [17], 4.32 µM (≈ 5 µg/mL).

Consider `CC[C@H](C)[C@H](NC(=O)CN)C(=O)N[C@@H](CC(C)C)C(=O)N[C@@H](CCCCN)C(=O)N[C@H](C(=O)N[C@H](C(=O)N[C@@H](CCCCN)C(=O)N[C@@H](CO)C(=O)N[C@H](C(=O)N[C@@H](C)C(=O)N[C@@H](CO)C(=O)N[C@@H](CCCCN)C(=O)N[C@H](C(=O)N[C@@H](C)C(=O)N[C@@H](CC(N)=O)C(=O)N[C@H](C(=O)N[C@H](C(=O)N[C@@H](CCC(N)=O)C(=O)N[C@@H](CCCCN)C(=O)N[C@@H](CC(C)C)C(=O)N[C@@H](CCCCN)C(=O)N[C@@H](CCCN=C(N)N)C(=O)N[C@@H](CCCCN)C(=O)N[C@@H](C)C(=O)N[C@@H](CCCCN)C(=O)N[C@@H](CC(N)=O)C(=O)N[C@@H](C)C(=O)N[C@H](C(=O)O)C(C)C)C(C)C)[C@@H](C)O)C(C)C)[C@@H](C)CC)[C@@H](C)CC)[C@@H](C)O` [GILKTIKSIASKVANTVQKLKRKAKNAV], for which the MIC is greater than 16.6 µM in assay [1]; 3.1 µM (≈ 9.33 µg/mL) in [18]; 3.1 µM (≈ 9.33 µg/mL) in [19]; 3.1 µM (≈ 9.33 µg/mL) in [20]; no less than 50 µM in [21]; 8.31 µM (≈ 25 µg/mL) in [7]. In addition, the minimum inhibitory concentration (MIC) was 6.2 µM (≈ 18.7 µg/mL) in assay [22]; 12 µM (≈ 36.1 µg/mL) in [23]; 3.1 µM (≈ 9.33 µg/mL) in assay [24]; no less than 50 µM in [25]; 2.23 µM (≈ 6.7 µg/mL) in assay [26]; 16.6 µM (≈ 50 µg/mL) in [27]. The MIC in [28] is 0.8 µM (≈ 2.41 µg/mL); in assay [17] it was 1.6 µM (≈ 4.81 µg/mL); in assay [29] it was 1.6 µM (≈ 4.81 µg/mL).

`CC[C@H](C)[C@H](NC(=O)[C@H](CCCCN)NC(=O)[C@@H]1CCCN1C(=O)[C@H](CC(C)C)NC(=O)[C@H](Cc1ccccc1)NC(=O)[C@H](CC(N)=O)NC(=O)[C@H](C)NC(=O)[C@H](C)NC(=O)[C@H](CC(C)C)NC(=O)CN)C(=O)N[C@@H](Cc1ccccc1)C(=O)N[C@@H](CS)C(=O)N[C@@H](CCCCN)C(=O)N[C@H](C(=O)N[C@H](C(=O)N[C@@H](CCCN=C(N)N)C(=O)N[C@@H](CCCCN)C(=O)N[C@@H](CS)C(N)=O)[C@@H](C)O)[C@@H](C)CC` [GLAANFLPKIFCKITRKC]: the minimum inhibitory concentration (MIC) in assay [30] is 6.18 µM (≈ 12.5 µg/mL); in [31] it was 12.4 µM (≈ 25 µg/mL); in assay [32], 12.4 µM (≈ 25 µg/mL); in [33], 12.4 µM (≈ 25 µg/mL); in assay [34] it was 49.4 µM (≈ 100 µg/mL); in assay [35], no less than 49.4 µM. In assay [36], this compound displayed an MIC of 6.18 µM (≈ 12.5 µg/mL).

Consider `CC[C@H](C)[C@H](NC(=O)[C@H](C)NC(=O)[C@@H]1CCCN1C(=O)[C@@H](NC(=O)[C@@H](NC(=O)[C@H](Cc1cnc[nH]1)NC(=O)[C@H](C)NC(=O)[C@H](C)NC(=O)[C@@H](NC(=O)[C@H](CCCCN)NC(=O)[C@H](C)NC(=O)[C@H](CC(C)C)NC(=O)[C@@H](NC(=O)CNC(=O)[C@H](Cc1ccccc1)NC(=O)[C@@H](N)CC(C)C)C(C)C)C(C)C)C(C)C)C(C)C)C(=O)N[C@@H](C)C(=O)N[C@@H](CCC(=O)O)C(=O)N[C@@H](Cc1cnc[nH]1)C(=O)N[C@@H](Cc1ccccc1)C(N)=O` [LFGVLAKVAAHVVPAIAEHF], for which the MIC in assay [37], in assay [38], in assay [39] and in [40] was no less than 64 µM each time.

On to `CC[C@H](C)[C@H](NC(=O)[C@H](C)NC(=O)[C@H](CC(C)C)NC(=O)[C@@H](N)CC(C)C)C(=O)N[C@H](C(=O)NCC(=O)N[C@@H](CC(N)=O)C(=O)N[C@@H](CC(C)C)C(=O)N[C@@H](CC(C)C)C(=O)N[C@@H](CCCCN)C(=O)N[C@@H](CO)C(=O)N[C@@H](CC(C)C)C(=O)N[C@@H](CC(C)C)C(=O)O)C(C)C` [LLAIVGNLLKSLL], for which the MIC in assay [41] and in assay [42] was 7.32 µM (≈ 10 µg/mL) in each case.
